From US9266933B2, “Polypeptides inhibiting neovascularization and uses thereof” (SHANGHAI FIRST PEOPLE'S HOSPITAL, priority 2011, dated 2016)
“Also recorded” adds a separate entry of the source.

Columns and labels:
[1] = tested on: Human Umbilical Vein Endothelial Cells (HUVECs); test: MTS proliferation assay of VEGF-stimulated HUVECs; format: cell-based; settings: VEGF + ZY3 in different concentrations, 24-hour incubation, compared with VEGF group; concentration-dependent; *P<0.05, **P<0.01
Description: The MTS method was used as follows:
Primary Human Umbilical Vein Endothelial Cells (HUVECs) (purchased from ScienCell Co.) were inoculated into a 96-well plate with an inoculation concentration of 2×10^4/ml. After cells had adhered to the wall, serum-free culture medium ECM was added and the cells were cultivated at 37° C. for 24 hours. Then the serum-free culture medium ECM as negative control, VEGF (100 ng/ml) (purchased from Sigma Co.) as positive control, VEGF (100 ng/well)+small peptide ZY3 in different concentrations as treatment groups were added in each well. After a 24-hour incubation, 20 μl 1 MTS solution (purchased from Promega Corporation) was added in each well. After incubation at 37° C. for 4 hours, the absorbance in each well was measured at 490 nm by using microplate reader (Bio-Rad Co.). The proliferation activity of cells was determined according to OD490. Finally, SPSS11.0.1 was used for statistical analysis.
Derived Polypeptides were prepared as follows, and the inhibition effect of each ZY3 derived polypeptides on proliferation of Human Umbilical Vein Endothelial Cells HUVECs was determined according to the methods in Example 3.

[2] = tested on: mouse cornea; test: Mouse corneal stroma micropocket model of VEGF-induced pathological angiogenesis; format: in vivo, C57BL/6 mice; settings: VEGF + ZY3 low (0.5 μg/granule) and high (2 μg/granule) concentration, 5 days after operation, compared with VEGF group; **P<0.01
Description: Mice model of the corneal stroma micropocket was used and the methods were as follows:
Male C57BL/6 mice (4-5 week old) were intraperitoneally injected with 2% pentobarbital (about 0.1 ml/mouse) for anesthesia. 4% hydrochloric oxybuprocaine ophthalmic solution was locally administrated. Under the stereo microscope, OT syringe needle and 2 ml syringe needle were used to perform a blunt dissection between the layers of corneal stroma at 0.8-1 mm from corneoscleral limbus. A pouch of about 0.6×0.8 mm was formed. […] Neovascularization area were calculated as followed: Area (mm^2)=0.5*3.14*VL (mm)*CN*0.4 (mm) SPSS1L 0.1 was used for statistical analysis.

[3] = tested on: chick embryo chorioallantoic membrane; test: Angiogenesis in chick embryo chorioallantoic membrane model; format: in vivo; settings: low (10 μg/piece) and high (50 μg/piece) concentration on filter paper, 2 days, compared with PBS group; **P<0.01
Description: Model of chick embryo chorioallantoic membrane was used and the methods were as follows:
Upon sterilization, the chick fertile eggs of 1-2 days old (purchased from 36 Lianhuaqing Chicken Farm of Shanghai Xinghuo Farm) were placed into a thermhygrostat (purchased from Shanghai Boxun industrial Co., ltd. SPX-250C) (T=37° C., Humidity H=60-70%) to incubate for 5 days. Every day, the eggs were overturned for one time at morning and night. Onto the filter paper (Whatman quantitative filter papers, Sigma, ashless, Grade 42, Cat No 1442-042, 42.5 mm Φ×100 circles) containing cortisone acetate (5 μg/μl, 5 μl/piece), PBS (5 μl/piece), low (2 μg/μl) or high (10 μg/μl) concentration of small peptides ZY3 (5 μl/piece) were dropped respectively. After air-dried, the filter paper was placed between the major vessels on chorioallantoic membrane of fertile eggs and the eggs were sealed. The eggs were placed in the thermhygrostat (T=37° C., Humidity H=60-70%) to incubate for another 2 days (24 hours a day) without overturning. Then the chorioallantoic membrane was thoroughly exposed and photographed (the range was within 5 mm around the filter paper). The number of 3-5 subordinate microvessels in the area within 2.5 mm around the filter paper was counted. SPSS11.0.1 was used for statistical analysis.

[4] = tested on: Human Umbilical Vein Endothelial Cells (HUVECs); test: Matrigel lumen formation assay of HUVECs; format: cell-based; settings: VEGF + ZY3 in different concentrations (incl. 160 μM), 6 hours, compared with VEGF group; concentration-dependent; *P<0.05
Description: The Matrigel method was used as follows:
A 50 μl/well Matrigel (purchased from BD Co.) was added into a 96-well plate, and then the plate was incubated at 37° C. for 30 min. Upon solidification, the primary HUVECs were inoculated onto the surface of Matrigel with an inoculation concentration of 8×10^6/ml. Then the serum-free culture medium ECM as negative control, VEGF (100 ng/ml) (purchased from Sigma Co.) as positive control, VEGF (100 ng/well)+small peptide ZY3 in different concentrations as treatment groups were added in each well. The plate wad incubated at 37° C. After treating for 6 hours, photos were taken for cells in 3 randomized fields in the plate under the microscope (×200 fold.), and the sum of the maximum lumina diameter formed in the cells was calculated. Finally, SPSS11.0.1 was used for statistical analysis.

## TANVTMQLLKIRSGDRPSYVELTFSQH (angiogenesis-inhibiting peptide ZY3)
[1]
  proliferation of HUVECs (OD490, MTS): significantly inhibited
[2]
  corneal angiogenesis (neovascularization area on mouse cornea): significantly inhibited
[3]
  angiogenesis of chick embryo chorioallantoic membrane (count of 3-5 subordinate microvessels within 2.5 mm around the filter paper): significant inhabitation effects; also recorded: significantly inhibited
[4]
  lumen formation of HUVECs (sum of maximum lumina diameter): significantly inhibited
